# Results taken from patent publication US20140142180A1, “METHODS OF TREATING TUMORS HAVING ELEVATED MCT1 EXPRESSION” (Whitehead Institute for Biomedical Research, priority 2012, published 2014).
# Assays:
# [1] = test system: AMPK and ACC phosphorylation; test: Immunoblot of AMPK and ACC phosphorylation, MCT1-null KBM7 cells; type: cell-based, human; settings: 50 μM 3-BrPA
# Experimental: Briefly, cells were rinsed twice in ice-cold PBS and harvested in a standard lysis buffer containing 50 mM Hepes, pH 7.4, 40 mM NaCl, 2 mM EDTA, 1.5 mM orthovanadate, 50 mM NaF, 10 mM pyrophosphate, 10 mM glycerophosphate, protease inhibitors (Roche) and 1% Triton-X-100. Proteins from total lysates were resolved by 8-12% SDS-PAGE, and analyzed by immunoblotting as described using anti-MCT1 (Millipore; Ab3540), anti-RPS6 and anti-raptor antibodies (1:1000)^50. For quantitation, ImageJ software was used and the signals were normalized using an equal loading control (RPS6/Raptor). Immunohistochemistry was performed on formalin-fixed paraffin embedded sections using a boiling Dako antigen retrieval method (Dako). A 1:500 dilution of the anti-MCT1 antibody was used for staining.
# MCT1 = target: T1, MCT1 (Homo sapiens, UniProt P53985); test: 14C-3-BrPA uptake assay, wild type KBM7 cells; type: cell-based
# T1 construct: endogenous in cells; host or cells: wild type KBM7 cells (near-haploid human cell line)
# T1 sequence (P53985 1-500): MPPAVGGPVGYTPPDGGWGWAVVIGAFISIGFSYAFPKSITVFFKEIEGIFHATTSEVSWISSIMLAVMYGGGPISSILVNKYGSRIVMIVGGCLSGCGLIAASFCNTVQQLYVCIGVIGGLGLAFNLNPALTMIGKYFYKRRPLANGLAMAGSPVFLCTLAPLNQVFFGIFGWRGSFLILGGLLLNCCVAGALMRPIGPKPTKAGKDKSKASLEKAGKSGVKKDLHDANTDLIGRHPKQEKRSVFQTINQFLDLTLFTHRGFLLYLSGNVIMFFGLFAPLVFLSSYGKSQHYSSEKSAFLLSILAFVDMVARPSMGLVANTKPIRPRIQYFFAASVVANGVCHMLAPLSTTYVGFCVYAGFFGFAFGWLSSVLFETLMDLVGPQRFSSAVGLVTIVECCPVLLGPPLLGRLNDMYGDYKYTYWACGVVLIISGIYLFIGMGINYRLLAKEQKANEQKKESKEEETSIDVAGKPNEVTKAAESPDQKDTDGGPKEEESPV
# T1 sequence (P35613 140-385 partner limits assumed): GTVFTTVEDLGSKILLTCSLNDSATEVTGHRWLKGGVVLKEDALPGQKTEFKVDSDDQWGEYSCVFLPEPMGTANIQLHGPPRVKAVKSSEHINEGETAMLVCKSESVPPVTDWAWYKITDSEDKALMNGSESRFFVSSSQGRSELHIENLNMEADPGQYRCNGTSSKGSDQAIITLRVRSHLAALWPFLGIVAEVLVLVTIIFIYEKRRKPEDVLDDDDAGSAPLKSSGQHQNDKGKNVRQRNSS
# Experimental: (§1) Wild type KBM7 or MCT1-null cells were seeded in HBSS and exposed for up to 20 minutes to 100 μM ^14C-labeled 3-BrPA (6.8 mCi/mmole) (Moravek) with or without competitor molecules like 3-BrPA, Pyruvate, L-Lactate and D-Lactate. Cells were washed with cold HBSS, lysed in a NaOH buffer, and uptake measured using a liquid scintillation counter.
# BT-20 cells = test: Cell survival assay, BT-20; type: cell-based, human
# Experimental: (§2) Cell lines (5,000-20,000) were seeded in 96-well plates and treated with indicated amounts of 3-BrPA. After 3 days of treatment, CellTiter-Glo (Promega) and/or CyQuant (Invitrogen) were used to measure survival percentage for each concentration compared to untreated cells. FACS analysis with Annexin V and 7AAD staining was performed according to manufacturer's manual (BD Pharmingen).
# MDA-MB-231 cells [2] = test: 14C-3-BrPA uptake, parental and MCT1-overexpressing MDA-MB-231 cells; type: cell-based, human; settings: MCT1-overexpressing vs parental MDA-MB-231
# parental KBM7 cells = test: Luciferase-based ATP assay, parental KBM7 cells; type: cell-based, human; settings: 30 min treatment
# Experimental: The bioenergetic profiles of KBM7 and MDA-MB-231 cells in response to 3-BrPA were determined using a Seahorse Bioscience XF24 Extracellular Flux Analyzer (Seahorse Bioscience). For the indicated experiments, 250,000 KBM7 or 40,000 MDA-MB-231 cells seeded in Seahorse tissue culture plates using unbuffered RPMI (10 mM Glucose). KBM7 cells were attached to the plates using CellTak (Clontech) one hour prior to the start of the experiment. For AUC (area under the curve) OCR and ECAR measurements, three consecutive readings were performed for each cell line. For experiments where 3-BrPA is used, after 3 consecutive readings, 50 μM 3-BrPA was injected through port A and ECAR and OCAR levels were measured. Lactate production was measured as described previously^50. For ATP assays, 20,000 cells were seeded and treated for 30 min with indicated amounts of 3-BrPA and ATP levels were determined using a luciferase-based assay (Promega). For metabolite measurements, 10 million wild type and MCT1 null KBM7 cells were cultured for 1 hour in presence of 50 μM 3-BrPA before metabolite extraction. Then, cells were rapidly washed three times with cold PBS, and then metabolites were extracted by addition of 80% ice-cold methanol followed after incubation on dry ice for 15 min. Endogenous metabolite profiles were obtained using LC-MS as described^51. Metabolite levels (n=3) were normalized to cell number.
# MDA-MB-231 cells [3] = test: Cell survival assay, MDA-MB-231; type: cell-based, human
# Experimental: as §2
# (§3) 15 cell lines (BT-474, BT-549, CAK1-1, CAL-51, HCC-70, HS578T, JURKAT, MDA-MB-157, MDA-MB-231, MDA-MB-453, MDA-MB-468, PC-3, SK-BR-3, T47D, ZR-75-1) were treated with 3-BrPA (0-300 μM). After 3 days, cell viability was quantified via CellTiter-Glo assay and an IC50 from the resulting dose-response curve was interpolated using a nonlinear regression model. Transcriptome-wide normalized mRNA levels from gene expression profiling experiments performed on the Affymetrix Human Genome U133 Plus 2.0 chip were obtained from the CCLE for all 15 cell lines. The mRNA expression pattern across all 15 samples for each of the genes was then correlated with the IC50 values. Similar correlation analysis was performed using OCR/ECAR values for each cell line.
# MCT1-null cells = test: 14C-3-BrPA uptake assay, MCT1-null KBM7 cells; type: cell-based, human; settings: MCT1-null compared to parental KBM7 cells
# Experimental: as §1
# [4] = test system: AMPK and ACC phosphorylation; test: Immunoblot of AMPK and ACC phosphorylation, wild type KBM7 cells; type: cell-based, human; settings: 50 μM 3-BrPA
# MT-3 cells = test: Cell survival assay, MT-3; type: cell-based, human; settings: MT-3, increased MCT1 level
# Experimental: as §2
# HCC-70 cells = test: Cell survival assay, HCC-70; type: cell-based, human; settings: HCC-70, increased MCT1 level
# Experimental: as §2, §3
smiles,measurement,setting,value
"O=C(O)C(=O)CBr [3-BrPA, 3-bromopyruvic acid]","AMPK and ACC phosphorylation, markers of energy stress",[1],did not affect
same,3-BrPA uptake on reduction in extracellular pH,"MCT1; wild type KBM7, radiolabeled 3-BrPA, 20 minutes",enhanced
same,competition with the uptake of radiolabeled 3-BrPA,"MCT1; wild type KBM7 in HBSS, up to 20 minutes, unlabeled competitor",effectively competed
same,sensitivity to 3-BrPA,"BT-20 cells; BT-20, increased MCT1 level",sensitive
same,sensitivity to 3-BrPA with partial suppression of MCT1 by RNAi,BT-20 cells; BT-20 expressing shRNAs targeting MCT1,sufficient to confer resistance
same,14C-3-BrPA uptake with MCT1 expression,MDA-MB-231 cells [2],enhance
same,total ATP levels,parental KBM7 cells,substantial decrease
same,sensitivity to 3-BrPA,"MDA-MB-231 cells [3]; MDA-MB-231, low MCT1 level",resistant
same,sensitivity to 3-BrPA with stable expression of MCT1,MDA-MB-231 cells [3]; MDA-MB-231 stably expressing MCT1 cDNA,sufficient to sensitize
same,uptake of 14C-labeled 3-BrPA,MCT1-null cells,did not take up
same,"AMPK and ACC phosphorylation, markers of energy stress",[4],robustly increasing
same,sensitivity to 3-BrPA,MT-3 cells,sensitive
same,sensitivity to 3-BrPA,HCC-70 cells,sensitive
